Source: US20230075765A1, “PYRROLO[2,3-D]PYRIMIDINE DERIVATIVE TARGETING EGFR MUTATION, AS WELL AS THE PREPARATIVE METHOD AND THE USE THEREOF” (WEST CHINA HOSPITAL, SICHUAN UNIVERSITY, priority 2020, published 2023)
pIC50: −log10 of the molar value. Where two headings read alike, the source gives them in different places.

Assays:
A549 cells = assay: Inhibition of cell proliferation, CCK8 method; type: cell-based, human; conditions: A549 lung adenocarcinoma cells, 48 h, read-out: Inhibitory activity (IC50) against A549
Description: (§1) Compounds 1-9 of the present invention were respectively weighed and dissolved in 1 ml of dimethyl sulfoxide (DMSO), to prepare a 10 mM drug solution, which was stored in a refrigerator at −20° C. in the dark after packaging. The stock solution was diluted with the corresponding culture medium to the required concentration just before the experiment.
(§2) HBE cells and BEAS-2B cells are normal lung bronchial epithelial cell lines, and both cells were cultured in DMEM high glucose medium (supplemented with 10% fetal bovine serum and 1% double antibody) to the logarithmic growth phase; H460 cells, A549 cells, H1975 cells and HCC827 cells are lung cancer cell lines, and all of them were cultured in RPMI1640 medium (supplemented with 10% fetal bovine serum and 1% double antibody) to the logarithmic growth phase. Among them, H1975 cells and HCC827 cells are EGFR mutant cells.
(§3) When the cells were cultured to 90% of the growth density, the cells were digested with 0.25% trypsin to prepare a single cell suspension. The cells were counted, and then seeded in a 96-well plate at a density of 5000 cells/well, 100 μl for each well. The culture plate was moved into a CO2 incubator and incubated for 24 h at 37° C. and 5% CO2. Compounds at different concentrations were added to each well, 5 replicate wells for each concentration, and the cells were treated with the compounds for 48 hours. CCK8 detection reagent was added to each well according to the operation manual, and then the plate was further incubated for 1 h before terminating the culture. 450 nm wavelength was chosen, and the absorbance value of each well was adjusted on the microplate ELISA analyzer. The result was recorded. […] was taken as the horizontal axis, and absorbance as the vertical axis to plot a curve. The half inhibitory concentration (IC50) was calculated by Bliss method. Each experiment was repeated at least 3 times.
(§4) Normal lung cell lines and different lung cancer cell lines were selected for experiments. Amongst, the compound with high anti-cancer activity was screened, whose anti-tumor activity was further studied.

H460 cells = assay: Inhibition of cell proliferation, CCK8 method; type: cell-based, human; conditions: 48 h, read-out: Inhibitory activity (IC50) against H460
Description: as §1, §2, §3, §4

BEAS-2B cells = assay: Inhibition of cell proliferation, CCK8 method; type: cell-based, human; conditions: BEAS-2B normal bronchial epithelial cells, 48 h, read-out: Inhibitory activity (IC50) against BEAS-2B
Description: as §1, §2, §3, §4

[1] = biological target: T1, EGFR (T790M, C797S, L858R) (Homo sapiens, UniProt P00533, C797S/L858R/T790M); assay: Kinase inhibition, Lantha Screen assay; type: biochemical; conditions: for Single-concentration inhibitory activity against EGFR (T790M, C7975, L858R), Mean (100% inhibition): compound concentration 2 nM; for pIC50: read-out: Inhibitory activity (IC50) on EGFR (T790M, C797S, L858R)
T1 construct: purchased BPS 40351
T1 sequence (P00533 25-1210 T790M/C797S/L858R): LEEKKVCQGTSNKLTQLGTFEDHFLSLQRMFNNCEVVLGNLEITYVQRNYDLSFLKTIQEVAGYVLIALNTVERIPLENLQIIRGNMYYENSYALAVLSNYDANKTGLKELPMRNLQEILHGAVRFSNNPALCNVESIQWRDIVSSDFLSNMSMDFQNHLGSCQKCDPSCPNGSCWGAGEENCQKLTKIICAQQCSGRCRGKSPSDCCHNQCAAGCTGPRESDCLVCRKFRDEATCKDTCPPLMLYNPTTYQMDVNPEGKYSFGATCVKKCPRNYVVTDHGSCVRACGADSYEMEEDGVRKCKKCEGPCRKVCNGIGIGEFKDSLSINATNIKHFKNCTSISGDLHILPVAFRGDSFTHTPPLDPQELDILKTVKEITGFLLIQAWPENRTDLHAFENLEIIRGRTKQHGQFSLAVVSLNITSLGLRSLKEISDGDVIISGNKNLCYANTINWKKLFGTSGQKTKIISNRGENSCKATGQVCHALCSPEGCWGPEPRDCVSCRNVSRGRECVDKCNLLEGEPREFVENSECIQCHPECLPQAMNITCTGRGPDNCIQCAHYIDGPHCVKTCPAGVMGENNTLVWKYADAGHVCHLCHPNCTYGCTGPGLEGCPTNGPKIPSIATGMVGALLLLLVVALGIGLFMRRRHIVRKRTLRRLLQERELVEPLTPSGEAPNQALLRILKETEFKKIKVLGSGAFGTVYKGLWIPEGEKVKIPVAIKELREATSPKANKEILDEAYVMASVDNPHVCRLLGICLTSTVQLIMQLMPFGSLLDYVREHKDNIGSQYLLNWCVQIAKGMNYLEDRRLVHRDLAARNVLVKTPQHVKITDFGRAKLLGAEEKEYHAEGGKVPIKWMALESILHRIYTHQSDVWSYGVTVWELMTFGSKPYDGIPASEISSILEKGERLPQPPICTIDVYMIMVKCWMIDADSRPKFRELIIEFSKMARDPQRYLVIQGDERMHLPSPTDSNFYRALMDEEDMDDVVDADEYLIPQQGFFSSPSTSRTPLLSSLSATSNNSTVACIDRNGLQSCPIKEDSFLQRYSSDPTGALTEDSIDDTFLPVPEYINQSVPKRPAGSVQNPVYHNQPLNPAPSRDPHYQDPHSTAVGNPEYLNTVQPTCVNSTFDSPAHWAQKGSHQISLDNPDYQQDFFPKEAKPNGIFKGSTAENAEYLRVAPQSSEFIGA
Description: According to relevant literature, the inhibitory activity of five kinases (EGFR, EGFR-LT, EGFR-LTC, BTK, JAK3) were tested. Note: EGFR, EGFR-LT, EGFR-LTC: wild-type EGFR, L858R/T790M (EGFR-LT), or L858R/T790M/C797S (EGFR-LTC) mutant protein. […]
1) The initial detection concentration of the compound is 10 μM, and the compound was prepared into a 100-fold concentration, namely 1000 μM. 95 μl of 100% DMSO was added to the first well of a 96-well plate, and then 10 μl of 10 mM compound solution was added to prepare a 1000 μM compound solution. 50 μl of […] compound solution prepared above was transferred to a 384-well Echo plate;
2) 50 μl of 100% DMSO was transferred to two empty wells as a control without compound and enzyme;
3) Echo 550 was used to transfer 100 nl of compound solution to a 384-well test plate. 2.3 Kinase reaction and termination
1) EGFR (T790M, C797S, L858R) was added to 1× kinase buffer to form 2× kinase solution;
2) 5 μl of the above 2× kinase solution was transferred to a 384-well reaction plate, and 1× kinase buffer was added to the negative control well, then incubated for 10 min at room temperature;
3) Fluorescein-PolyGT and ATP were added to 1× kinase buffer to form a 2× substrate solution;
4) 5 μl of the above 2× substrate solution was transferred to a 384-well reaction plate;
5) The 384-well reaction plate was incubated at room temperature for 30 min;
6) 2× mixed solution of antibody and EDTA was prepared, of which […] was added to the 384-well reaction plate to stop the reaction;
7) The plate was left at room temperature for 60 min.
Percent inhibition=(max−Lantha signal)/(max−min)*100
“min” is the reading of the control well without enzyme; “max” is the reading of DMSO control well. 3) The data were imported into MS Excel, and IC50 results were subjected to curve fitting by using XLFit excel add-in version 5.4.0.8:
(§5) Fitting formula: Y=Bottom+(Top−Bottom)/(1+(IC50/X)^HillSlope)

EGFR = biological target: T2, EGFR (Homo sapiens, UniProt P00533); assay: Kinase inhibition, mobility shift assay; type: biochemical; conditions: for Single-concentration inhibitory activity against EGFR, Mean (100% inhibition): compound concentration 80 nM; for pIC50: wild-type EGFR, read-out: Inhibitory activity (IC50) on EGFR
T2 construct: purchased Carna 14-531
T2 sequence (P00533 25-1210): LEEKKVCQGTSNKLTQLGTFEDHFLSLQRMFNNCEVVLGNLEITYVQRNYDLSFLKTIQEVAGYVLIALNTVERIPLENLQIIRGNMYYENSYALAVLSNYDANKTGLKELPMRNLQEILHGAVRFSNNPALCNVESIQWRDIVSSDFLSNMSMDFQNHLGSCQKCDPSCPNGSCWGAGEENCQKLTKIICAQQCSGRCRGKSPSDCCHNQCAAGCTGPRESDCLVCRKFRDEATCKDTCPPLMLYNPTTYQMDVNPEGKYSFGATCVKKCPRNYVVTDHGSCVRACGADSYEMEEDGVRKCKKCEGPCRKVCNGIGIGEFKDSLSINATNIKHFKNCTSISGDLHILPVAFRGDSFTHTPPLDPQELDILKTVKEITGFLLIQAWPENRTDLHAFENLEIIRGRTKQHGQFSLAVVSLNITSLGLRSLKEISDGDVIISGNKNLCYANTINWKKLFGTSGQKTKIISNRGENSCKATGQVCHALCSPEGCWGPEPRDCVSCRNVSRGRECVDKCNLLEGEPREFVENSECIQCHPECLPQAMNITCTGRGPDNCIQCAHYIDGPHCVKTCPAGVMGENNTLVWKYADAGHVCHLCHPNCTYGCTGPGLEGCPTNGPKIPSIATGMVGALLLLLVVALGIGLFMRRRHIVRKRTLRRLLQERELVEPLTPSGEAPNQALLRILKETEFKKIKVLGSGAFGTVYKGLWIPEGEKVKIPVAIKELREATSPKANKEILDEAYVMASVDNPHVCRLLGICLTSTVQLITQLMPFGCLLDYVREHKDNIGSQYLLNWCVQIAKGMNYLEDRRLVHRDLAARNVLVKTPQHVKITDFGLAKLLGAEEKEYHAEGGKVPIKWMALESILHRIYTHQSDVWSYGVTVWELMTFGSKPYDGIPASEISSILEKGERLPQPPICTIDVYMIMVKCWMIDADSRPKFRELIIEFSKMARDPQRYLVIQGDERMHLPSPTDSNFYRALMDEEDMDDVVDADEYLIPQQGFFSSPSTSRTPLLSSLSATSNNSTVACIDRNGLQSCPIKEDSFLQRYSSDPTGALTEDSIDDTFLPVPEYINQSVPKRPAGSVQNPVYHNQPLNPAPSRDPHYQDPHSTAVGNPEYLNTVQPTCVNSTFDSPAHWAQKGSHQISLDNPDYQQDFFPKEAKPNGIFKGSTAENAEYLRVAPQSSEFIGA
Description: (§6) According to relevant literature, the inhibitory activity of five kinases (EGFR, EGFR-LT, EGFR-LTC, BTK, JAK3) were tested. Note: EGFR, EGFR-LT, EGFR-LTC: wild-type EGFR, L858R/T790M (EGFR-LT), or L858R/T790M/C797S (EGFR-LTC) mutant protein.
(§7) 95 μl of 100% DMSO was added to the first well of a 96-well plate, and then 5 μl of 10 mM compound solution was added to prepare a 500 μM compound solution.
(§8) 10 μl solution was taken out from the 50-fold concentration of compound solution (prepared and tested), and transferred to a 96-well plate, to which was added 90 μl kinase buffer to prepare a 5-fold concentration of compound solution.
(§9) 5 μl solution was taken out from the 5-fold concentration of compound solution in a 96-well plate, and transferred to a 384-well reaction plate. For example, the solution was transferred from well A1 of a 96-well plate to wells A1 and A2 of a 384-well plate, from well A2 of a 96-well plate to wells A3 and A4 of a 384-well plate, and so on.
(§10) 1) The kinase was added to 1× kinase buffer to form 2.5× kinase solution;
(§11) 2) 10 μl of the above 2.5× kinase solution was transferred to a 384-well reaction plate, and 1× kinase buffer was added to the negative control well, then incubated for 10 min at room temperature;
(§12) 3) FAM-labeled polypeptide and ATP were added to 1× kinase buffer to form a 2.5×substrate solution;
(§13) 5) The 384-well reaction plate was incubated at 28° C. for 60 min, to which was added 30 μl of stop solution to stop the reaction, and the model of biochemical incubator was SPX-100B-Z.
(§14) The conversion rate was read on CaliperEZ Reader.
(§15) 1) The conversion rate data were copied from CaliperEZ Reader II;
(§16) 2) The conversion rate was converted into the inhibition rate;
(§17) Percent inhibition=(max−conversion)/(max−min)*100
(§18) “min” is the reading of the control well without enzyme; “max” is the reading of DMSO control well.
(§19) 3) IC50 values were fitted by using XLFit excel add-in version 5.4.0.8.
as §5

BTK = biological target: T3, BTK (Homo sapiens, UniProt Q06187); assay: Kinase inhibition, mobility shift assay; type: biochemical; conditions: for Single-concentration inhibitory activity on BTK, Mean (100% inhibition): compound concentration 4 nM; for pIC50: read-out: Inhibitory activity (IC50) on BTK
T3 construct: purchased Carna 08-180
T3 sequence (Q06187 whole entry): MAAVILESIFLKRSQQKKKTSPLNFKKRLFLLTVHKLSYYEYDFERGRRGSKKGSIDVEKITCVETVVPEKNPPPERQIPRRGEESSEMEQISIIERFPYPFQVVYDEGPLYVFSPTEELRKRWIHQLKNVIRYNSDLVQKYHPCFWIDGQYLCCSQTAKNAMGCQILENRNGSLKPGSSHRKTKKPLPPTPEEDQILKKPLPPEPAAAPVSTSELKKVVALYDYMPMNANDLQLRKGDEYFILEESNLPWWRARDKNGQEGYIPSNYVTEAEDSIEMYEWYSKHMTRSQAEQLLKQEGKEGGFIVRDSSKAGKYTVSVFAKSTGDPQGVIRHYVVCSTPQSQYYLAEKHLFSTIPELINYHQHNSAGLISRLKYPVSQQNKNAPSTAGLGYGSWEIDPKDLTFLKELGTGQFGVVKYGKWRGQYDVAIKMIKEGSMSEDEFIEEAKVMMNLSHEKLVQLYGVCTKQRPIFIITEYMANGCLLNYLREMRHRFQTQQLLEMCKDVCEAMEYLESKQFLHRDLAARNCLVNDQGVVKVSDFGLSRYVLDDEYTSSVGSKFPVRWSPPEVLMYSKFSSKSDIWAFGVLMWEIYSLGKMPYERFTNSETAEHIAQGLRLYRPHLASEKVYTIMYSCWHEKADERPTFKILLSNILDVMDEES
Description: as §6, §7, §8, §9, §10, §11, §12, §13, §14, §15, §16, §17, §18, §19, §5

[2] = Homo sapiens, NCI-H460, H460 large cell lung cancer cells

SMILES	pIC50 (A549 cells; Homo sapiens)	pIC50 (H460 cells; [2])	pIC50 (BEAS-2B cells; Homo sapiens)	Single-concentration inhibitory activity against EGFR (T790M, C7975, L858R), Mean (100% inhibition) [1] [% inhibition]	Single-concentration inhibitory activity against EGFR, Mean (100% inhibition) (EGFR) [% inhibition]	Single-concentration inhibitory activity on BTK, Mean (100% inhibition) (BTK) [% inhibition]	pIC50 [1]	pIC50 (EGFR)	pIC50 (BTK)	pIC50 (A549 cells)	pIC50 (H460 cells; H460 large cell lung cancer cells)	pIC50 (BEAS-2B cells)
C=CC(=O)Nc1cccc(Oc2nc(Nc3ccc(N4CCN(C)CC4)c(N)c3)nc3c2ccn3COC(=O)C(C)(C)C)c1 [Compound 8]	4.97	5.12	5.02	3.6	4.5	−2.9	–	–	–	–	–	–
C=CC(=O)Nc1cccc(Oc2nc(Nc3ccc(N4CCN(C)CC4)c([N+](=O)[O-])c3)nc3[nH]ccc23)c1 [Compound 5]	5.54	5.10	5.43	5.8	37	3.8	5.65	6.84	7.37	–	–	–
C=CC(=O)Nc1cccc(Oc2nc(Nc3ccc(N4CCN(C)CC4)c(OC)c3)nc3[nH]ccc23)c1 [Compound 4]	4.69	4.47	5.00	7.8	32	15	5.85	6.66	7.51	–	–	–
C=CC(=O)Nc1cccc(Oc2nc(Nc3ccc(N4CCN(C)CC4)c(Cl)c3)nc3[nH]ccc23)c1 [Compound 2]	–	–	–	9.2	86	37	–	–	–	5.77	5.31	5.42
C=CC(=O)Nc1cccc(Oc2nc(Nc3ccc(N4CCN(C)CC4)c(I)c3)nc3c2ccn3COC(=O)C(C)(C)C)c1 [Compound 9]	5.02	4.60	4.54	2.1	3.6	3.3	–	–	–	–	–	–
C=CC(=O)Nc1cccc(Oc2nc(Nc3ccc(N4CCN(C)CC4)c(N)c3)nc3[nH]ccc23)c1 [Compound 6]	5.22	4.57	5.11	8.0	63	27	6.33	7.19	7.96	–	–	–
C=CC(=O)Nc1cccc(Oc2nc(Nc3ccc(N4CCN(C)CC4)c([N+](=O)[O-])c3)nc3c2ccn3COC(=O)C(C)(C)C)c1 [Compound 7]	5.51	5.33	5.24	8.4	4.7	5.9	–	–	–	–	–	–
